Test results taken from ChEMBL document CHEMBL2057129, “Evaluation of synthetic FK506 analogues as ligands for the FK506-binding proteins 51 and 52” (J Med Chem, 2012).

Assays:
[1] = target: T1, Peptidyl-prolyl cis-trans isomerase FKBP5 (Homo sapiens, UniProt Q13451); assay: Binding affinity to FKBP51 FK1 domain by fluorescence polarization assay
T1 sequence (Q13451 whole entry): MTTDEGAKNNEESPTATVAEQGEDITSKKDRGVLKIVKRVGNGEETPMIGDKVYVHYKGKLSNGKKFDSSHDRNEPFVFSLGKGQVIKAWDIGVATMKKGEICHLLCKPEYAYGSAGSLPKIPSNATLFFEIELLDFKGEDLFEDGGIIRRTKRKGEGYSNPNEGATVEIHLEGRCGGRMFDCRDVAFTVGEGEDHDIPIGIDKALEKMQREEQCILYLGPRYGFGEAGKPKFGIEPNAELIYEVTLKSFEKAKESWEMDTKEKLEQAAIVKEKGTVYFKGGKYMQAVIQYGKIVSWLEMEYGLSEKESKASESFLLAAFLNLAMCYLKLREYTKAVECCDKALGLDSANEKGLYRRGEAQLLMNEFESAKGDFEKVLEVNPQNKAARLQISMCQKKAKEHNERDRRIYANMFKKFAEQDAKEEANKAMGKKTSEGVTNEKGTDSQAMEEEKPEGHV

[2] = target: T2, Peptidyl-prolyl cis-trans isomerase FKBP4 (Homo sapiens, UniProt Q02790); assay: Binding affinity to FKBP52 FK1 domain by fluorescence polarization assay
T2 sequence (Q02790 whole entry): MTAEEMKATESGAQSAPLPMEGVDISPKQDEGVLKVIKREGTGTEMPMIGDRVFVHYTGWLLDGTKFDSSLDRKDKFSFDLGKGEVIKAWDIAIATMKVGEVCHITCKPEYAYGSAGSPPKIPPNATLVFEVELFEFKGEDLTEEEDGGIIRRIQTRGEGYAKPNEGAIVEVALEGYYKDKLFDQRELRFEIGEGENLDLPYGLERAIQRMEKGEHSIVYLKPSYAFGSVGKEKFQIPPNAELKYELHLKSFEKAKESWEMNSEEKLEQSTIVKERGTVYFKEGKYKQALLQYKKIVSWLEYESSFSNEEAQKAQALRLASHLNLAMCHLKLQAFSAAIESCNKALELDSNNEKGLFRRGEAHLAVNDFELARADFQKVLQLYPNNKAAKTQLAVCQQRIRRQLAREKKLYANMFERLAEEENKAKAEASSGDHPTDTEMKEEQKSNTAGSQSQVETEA

[3] = target: Peptidyl-prolyl cis-trans isomerase FKBP1A (Homo sapiens, UniProt P62942); assay: Binding affinity to FKBP12 by fluorescence polarization assay
Peptidyl-prolyl cis-trans isomerase FKBP1A, sequence (P62942 whole entry): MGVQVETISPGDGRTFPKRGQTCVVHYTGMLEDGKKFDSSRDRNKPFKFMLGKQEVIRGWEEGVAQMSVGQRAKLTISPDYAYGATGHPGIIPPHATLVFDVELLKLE

Compound: CCC(C)(C)C(=O)C(=O)N1CCCC[C@H]1C(=O)OCCCc1cccnc1
- IC50 [1]: > 150000 nM
- IC50 [2]: > 150000 nM
- IC50 [3]: 2110 nM

Compound: CCC(C)(C)C(=O)C(=O)N1CCC[C@H]1C(=O)O[C@H](CCc1ccc(OC)c(OC)c1)c1cccc(OCC(=O)O)c1
- IC50 [3]: 800 nM

Compound: CCC(C)(C)C(=O)C(=O)N1CC=CC[C@H]1C(=O)O[C@H](CCc1ccc(OC)c(OC)c1)c1cccc(OCC(=O)O)c1
- IC50 [3]: 550 nM

Compound: CCC(C)(C)C(=O)C(=O)N1CCSC[C@H]1C(=O)O[C@H](CCc1ccc(OC)c(OC)c1)c1cccc(OCC(=O)O)c1
- IC50 [1]: > 100000 nM
- IC50 [2]: > 100000 nM
- IC50 [3]: 1290 nM

Compound: CCC(C)(C)C(=O)C(=O)N1CCCC[C@H]1C(=O)OC
- IC50 [1]: > 100000 nM
- IC50 [2]: > 100000 nM
- IC50 [3]: 17100 nM

Compound: CCC(C)(C)C(=O)C(=O)N1CCCC[C@H]1C(=O)OCCOc1ccc(OC)c(OC)c1
- IC50 [1]: > 100000 nM
- IC50 [2]: > 100000 nM
- IC50 [3]: 2450 nM

Compound: CCC(C)(C)C(=O)C(=O)N1CCCC[C@H]1C(=O)O[C@H](CCc1ccc(OC)c(OC)c1)c1cccc(OCCN2CCOCC2)c1
- IC50 [2]: 2800 nM
- IC50 [3]: 100 nM

Compound: CCC(C)(C)C(=O)C(=O)N1CCC[C@H]1C(=O)O[C@H](CCc1ccc(OC)c(OC)c1)c1cccc(OCCN2CCOCC2)c1
- IC50 [1]: 15300 nM
- IC50 [2]: 5550 nM
- IC50 [3]: 1050 nM

Compound: CCC(C)(C)C(=O)C(=O)N1CCCC[C@H]1C(=O)O[C@H](CCc1ccc(OC)c(OC)c1)c1cccc(N)c1
- IC50 [1]: 3800 nM
- IC50 [2]: 1070 nM

Compound: COc1ccc(CC[C@@H](OC(=O)[C@@H]2CCCCN2C(=O)C(=O)c2cc(OC)c(OC)c(OC)c2)c2cccc(OCC(=O)O)c2)cc1OC
- IC50 [3]: 150 nM

Compound: COc1ccc(CC[C@@H](OC(=O)[C@@H]2CCCCN2C(=O)C(=O)[C@]2(O)CCCC[C@H]2C)c2cccc(OCC(=O)O)c2)cc1OC
- IC50 [3]: 60 nM

Compound: CC[C@@H]1CCCC[C@@]1(O)C(=O)C(=O)N1CCCC[C@H]1C(=O)O[C@H](CCc1ccc(OC)c(OC)c1)c1cccc(OCC(=O)O)c1
- IC50 [3]: 130 nM

Compound: CC[C@H]1CCCC[C@]1(O)C(=O)C(=O)N1CCCC[C@H]1C(=O)O[C@H](CCc1ccc(OC)c(OC)c1)c1cccc(OCC(=O)O)c1
- IC50 [3]: 343 nM

Compound: COc1ccc(CC[C@@H](OC(=O)[C@@H]2CCCCN2C(=O)C(=O)[C@]2(O)CCCC[C@H]2CO)c2cccc(OCC(=O)O)c2)cc1OC
- IC50 [3]: 510 nM

Compound: COc1ccc(CC[C@@H](OC(=O)[C@@H]2CCCCN2C(=O)C(=O)[C@]2(O)CCCC[C@@H]2C)c2cccc(OCC(=O)O)c2)cc1OC
- IC50 [3]: 50 nM

Compound: COc1ccc(CC[C@@H](OC(=O)[C@@H]2CCCCN2C(=O)C(=O)[C@@]2(O)CCCC[C@@H]2C)c2cccc(OCC(=O)O)c2)cc1OC
- IC50 [3]: 50 nM

Compound: COc1ccc(CC[C@@H](OC(=O)[C@@H]2CCCCN2C(=O)C(=O)[C@@]2(O)CCCC[C@H]2C)c2cccc(OCC(=O)O)c2)cc1OC
- IC50 [3]: 60 nM

Compound: CCC(C)(C)C(=O)C(=O)N1CCCC[C@H]1C(=O)O[C@H](CCc1ccc(OC)c(OC)c1)c1cccc(OCC(=O)O)c1
- IC50 [2]: 10500 nM
- IC50 [3]: 170 nM

Compound: COc1ccc(CC[C@@H](OC(=O)[C@@H]2CCCCN2C(=O)C(=O)[C@]2(O)CCCC[C@H]2C)c2cccc(OCCN3CCOCC3)c2)cc1OC (mixture of isomers)
- IC50 [3]: 60 nM

Compound: CCC(C)(C)C(=O)C(=O)N1CCCC[C@H]1C(=O)NC(CCc1ccc(OC)c(OC)c1)c1cccc(OCC(=O)O)c1 (mixture of isomers)
- IC50 [1]: > 100000 nM
- IC50 [2]: > 100000 nM
- IC50 [3]: 3380 nM

Compound: COc1ccc(CC[C@@H](OC(=O)[C@@H]2CCCCN2C(=O)C(=O)[C@]2(O)CCCC[C@H]2C)c2cccc(OCC(=O)O)c2)cc1OC (mixture of isomers)
- IC50 [3]: 60 nM

Compound: COc1ccc(CCOC(=O)[C@@H]2CCCCN2C(=O)C(=O)[C@]2(O)CCCC[C@H]2C)cc1OC (mixture of isomers)
- IC50 [1]: > 100000 nM
- IC50 [2]: > 100000 nM
- IC50 [3]: 2200 nM

Compound: COc1ccc(OCCOC(=O)[C@@H]2CCCCN2C(=O)C(=O)[C@]2(O)CCCC[C@H]2C)cc1OC (mixture of isomers)
- IC50 [1]: 29400 nM
- IC50 [2]: 11700 nM
- IC50 [3]: 310 nM

Compound: CC[C@@H]1CCCC[C@@]1(O)C(=O)C(=O)N1CCCC[C@H]1C(=O)OCCOc1ccc(OC)c(OC)c1 (mixture of isomers)
- IC50 [1]: > 100000 nM
- IC50 [2]: > 100000 nM
- IC50 [3]: 2780 nM

Compound: CC[C@@H]1CCCC[C@@]1(O)C(=O)C(=O)N1CCCC[C@H]1C(=O)O[C@H](CCc1ccc(OC)c(OC)c1)c1cccc(OCC(=O)O)c1 (mixture of isomers)
- IC50 [3]: 320 nM

Compound: CC[C@@H]1CCCC[C@@]1(O)C(=O)C(=O)N1CCCC[C@H]1C(=O)O[C@H](CCc1ccc(OC)c(OC)c1)c1cccc(OCCN2CCOCC2)c1 (mixture of isomers)
- IC50 [3]: 470 nM

Compound: COc1ccc(CC[C@@H](OC(=O)[C@@H]2CCCCN2C(=O)C(=O)[C@]2(O)CCCC[C@@H]2C)c2cccc(OCC(=O)O)c2)cc1OC (mixture of isomers)
- IC50 [3]: 60 nM

Compound: CC[C@H]1CCCC[C@@]1(O)C(=O)C(=O)N1CCCC[C@H]1C(=O)O[C@H](CCc1ccc(OC)c(OC)c1)c1cccc(OCC(=O)O)c1 (mixture of isomers)
- IC50 [3]: 570 nM

Compound: COc1cc(C(=O)C(=O)N2CCCC[C@H]2C(=O)OC(CCCc2cccnc2)CCCc2cccnc2)cc(OC)c1OC [BIRICODAR]
- IC50 [1]: 8520 nM
- IC50 [2]: 7370 nM
- IC50 [3]: 17 nM

Compound: CCC(C)(C)C(=O)C(=O)N1CCC[C@H]1C(=O)OCCCc1cccnc1 [GPI-1046]
- IC50 [1]: > 100000 nM
- IC50 [2]: > 100000 nM
- IC50 [3]: 1240 nM

Compound: COc1cc(C(=O)C(=O)N(C)[C@@H](Cc2ccc(Cl)cc2)C(=O)N(Cc2ccccc2)C(CCc2ccncc2)CCc2ccncc2)cc(OC)c1OC [TIMCODAR]
- IC50 [1]: > 100000 nM
- IC50 [2]: > 100000 nM
- IC50 [3]: > 100000 nM
